Measured values as given in US11129801B2 (SigmaThera SAS, priority 2016, dated 2021).

B1: BDNF: Brain-derived neurotrophic factor, used as a reference compound (protein, UniProt P23560 19-247, looked up)
Neurotrophic factor BDNF …: APMKEANIRGQGGLAYPGVRTHGTLESVNGPKAGSRGLTSLADTFEHVIEELLDEDQKVRPNEENNKDADLYTSRVMLSSQVPLEPPLLFLLEEYKNYLDAANMSMRVRRHSDPARRGELSVCDSISEWVTAADKKTAVDMSGGTVTVLEKVPVSKGQLKQYFYETKCNPMGYTKEGCRGIDKRHWNSQCRTTQSYVRALTMDSKKRIGWRFIRIDTSCVCTLTIKRGR

Assays:
[1] = tested on: rat primary dopaminergic neurons (TH positive neurons); assay: Survival of primary dopaminergic neurons injured by 6OHDA; assay type: cell-based; conditions: 6OHDA 20 μM, 48 h
Description: Rat dopaminergic neurons were cultured as described (Schinelli S, et al. Journal of neurochemistry 50(6): 1900-1907). Briefly pregnant female rats of 15 days gestation were killed by cervical dislocation (Rats Wistar; Janvier) and the foetuses removed from the uterus. The embryonic midbrains were removed and placed in ice-cold medium of Leibovitz 15 (L15; PanBiotech, Ref P04-27055, Batch: 8810315) containing 2% of Penicillin-Streptomycin (PS; PanBiotech, ref: P06-07100, Batch: 7511015) and 1% of bovine serum albumin (BSA; PanBiotech, Ref: P06-1391100, Batch: H140904). Only the ventral portions of the mesencephalic flexure were used for the cell preparations as this region of the developing brain is rich in dopaminergic neurons. The midbrains were dissociated by trypsinization for 20 minutes (min) at 37° C. (Trypsin EDTA 1×; PanBiotech, Ref: P10-023100, batch: 1670415). The reaction was stopped by the addition of Dulbecco's modified Eagle's medium (DMEM; PanBiotech, Ref: P04-03600, Batch: 9021115) containing DNase I grade II (0.1 mg/ml; PanBiotech, Ref: P60-37780100, Batch: H140508) and 10% of fetal calf serum (FCS; Invitrogen). Cells were then mechanically dissociated by 3 passages through a 10 ml pipette. Cells were then centrifuged at 180×g for 10 min at 4° C. on a layer of BSA (3.5%) in L15 medium. The supernatant was discarded and the cell pellets were re-suspended in a defined culture medium consisting of Neurobasal (Invitrogen, Ref: 21103, Batch: 1754639) supplemented with B27 (2%; Invitrogen, ref: 17504, batch: 1799273), L-glutamine (2 mM; PanBiotech, Ref: P04-80100, Batch: 6620314) and 2% of PS, 10 ng/mL of BDNF (PanBiotech, Ref: CB-1115002, Batch: 121027) and 1 ng/mL of GDNF (PanBiotech, Ref: CB-1116001, Batch: H151004). Viable cells were counted in a Neubauer cytometer using the trypan blue exclusion test. The cells were seeded at a density of 4×10^4 cells/well in 96 well-plates (pre-coated with poly-D-lysine; Greiner, Ref: E150033VJ) and were cultured at 37° C. in a humidified air (95%)/CO2 (5%) atmosphere. Half of the medium was changed every 2 days with fresh medium. In these conditions, after 5 days of culture, astrocytes are present in the culture and release growth factor allowing neurons differentiation. Five to six percent of the neuronal cell population was dopaminergic neurons.
Briefly, on day 6 of culture, cells were pre-treated for 1 h with test compound or reference compound then intoxicated with 6OHDA (20 μM) for 48 h. The following conditions were done:
[…]_+6OHDA (20 μM, 48 h+BDNF (50 ng/ml) as a reference compound
One culture was done with 6 wells per condition. […]
The data were expressed as mean±s.e.m. […]

[2] = tested on: Aβ25-35 mouse model of Alzheimer's disease; assay: Aβ25-35 mouse model, overall neuroprotection (summary statements); assay type: in vivo
Description: The compound efficacy was evaluated 7 days after the peptide administration on the attenuation of the Aβ25-35-induced learning deficits (spatial working memory using the spontaneous alternation in the Y-maze test, and contextual long-term memory using the passive avoidance test).
The mice were tested 7 days post injection or at the indicated time points.
In Experiment 2, twelve mice per experimental group were administered Sc.Aβ or Aβ25-35-amyloid peptide on day 0 by i.c.v. injection. […] Animals were tested at day 7 and later.
The synergy/additivity/antagonism was evaluated by calculating the combination index. […] Animals were then tested at day 7 and later.
Animals were tested at day 7 and later.
For each of Experiments 1-4, on day 7, all animals were tested for the spontaneous alternation performance in the Y-maze test, an index of spatial working memory. On day 8 and 9, the contextual long-term memory of the animals was assessed using the step-through type passive avoidance procedure. On day 9, immediately after the retention session, animals were sacrificed by decapitation and the hippocampus and cortex dissected out. Lipid peroxidation was analyzed in the hippocampus, whereas neuroinflammation, apoptosis, amyloid burden and hyperphosphorylation of tau protein were analyzed in cortex.

| Molecule | TH positive neurons ([1]; 0.3 μM) | TH positive neurons ([1]; 1 μM) | TH positive neurons ([1]; 3 μM) | dose in combination versus dose active on depression (fold lower) ([2]; combined with donepezil, ibuprofen, selegiline or atorvastatin) | lowest dose with effect, preventive treatment ([2]; given 20 min before Aβ25-35) | lowest dose with effect, curative treatment ([2]; starting 1 day after induction of the toxicity) | synergistic effect in combination ([2]; with donepezil, ibuprofen, selegiline or atorvastatin, not with memantine) | TH positive neurons ([1]; 50 ng/mL) |
| --- | --- | --- | --- | --- | --- | --- | --- | --- |
| CCC(C/C=C/c1ccccc1)(c1ccccc1)N(C)CC1CC1 (single isomer, unassigned; (+)) [igmesine, (+)-(E)-N-(cyclopropylmethyl)-N-methyl-3,6-diphenylhex-5-en-3-amine] | 94.58 % of the control | 100.49 % of the control | 87.68 % of the control | 300 fold | 0.3 mg/kg | 1 mg/kg | clear synergistic effect |  |
| B1 |  |  |  |  |  |  |  | 91.03 % of the control |
